# Test results reported in ChEMBL document CHEMBL5338706, “Discovery of a potent and selective proteolysis targeting chimera (PROTAC) degrader of NSD3 histone methyltransferase” (Eur J Med Chem, 2022).
# Active and inactive are the calls of the source. No cut-off for these calls is given here.
# Legend:
# [1] = target: T1, Histone-lysine N-methyltransferase NSD3 (Homo sapiens) (UniProt Q9BZ95); assay: Induction of NSD3 degradation in human NCI-H1703 cells at 5 uM measured after 48 hrs by Western blot analysis relative to control; format: cell-based
# T1 sequence (whole entry): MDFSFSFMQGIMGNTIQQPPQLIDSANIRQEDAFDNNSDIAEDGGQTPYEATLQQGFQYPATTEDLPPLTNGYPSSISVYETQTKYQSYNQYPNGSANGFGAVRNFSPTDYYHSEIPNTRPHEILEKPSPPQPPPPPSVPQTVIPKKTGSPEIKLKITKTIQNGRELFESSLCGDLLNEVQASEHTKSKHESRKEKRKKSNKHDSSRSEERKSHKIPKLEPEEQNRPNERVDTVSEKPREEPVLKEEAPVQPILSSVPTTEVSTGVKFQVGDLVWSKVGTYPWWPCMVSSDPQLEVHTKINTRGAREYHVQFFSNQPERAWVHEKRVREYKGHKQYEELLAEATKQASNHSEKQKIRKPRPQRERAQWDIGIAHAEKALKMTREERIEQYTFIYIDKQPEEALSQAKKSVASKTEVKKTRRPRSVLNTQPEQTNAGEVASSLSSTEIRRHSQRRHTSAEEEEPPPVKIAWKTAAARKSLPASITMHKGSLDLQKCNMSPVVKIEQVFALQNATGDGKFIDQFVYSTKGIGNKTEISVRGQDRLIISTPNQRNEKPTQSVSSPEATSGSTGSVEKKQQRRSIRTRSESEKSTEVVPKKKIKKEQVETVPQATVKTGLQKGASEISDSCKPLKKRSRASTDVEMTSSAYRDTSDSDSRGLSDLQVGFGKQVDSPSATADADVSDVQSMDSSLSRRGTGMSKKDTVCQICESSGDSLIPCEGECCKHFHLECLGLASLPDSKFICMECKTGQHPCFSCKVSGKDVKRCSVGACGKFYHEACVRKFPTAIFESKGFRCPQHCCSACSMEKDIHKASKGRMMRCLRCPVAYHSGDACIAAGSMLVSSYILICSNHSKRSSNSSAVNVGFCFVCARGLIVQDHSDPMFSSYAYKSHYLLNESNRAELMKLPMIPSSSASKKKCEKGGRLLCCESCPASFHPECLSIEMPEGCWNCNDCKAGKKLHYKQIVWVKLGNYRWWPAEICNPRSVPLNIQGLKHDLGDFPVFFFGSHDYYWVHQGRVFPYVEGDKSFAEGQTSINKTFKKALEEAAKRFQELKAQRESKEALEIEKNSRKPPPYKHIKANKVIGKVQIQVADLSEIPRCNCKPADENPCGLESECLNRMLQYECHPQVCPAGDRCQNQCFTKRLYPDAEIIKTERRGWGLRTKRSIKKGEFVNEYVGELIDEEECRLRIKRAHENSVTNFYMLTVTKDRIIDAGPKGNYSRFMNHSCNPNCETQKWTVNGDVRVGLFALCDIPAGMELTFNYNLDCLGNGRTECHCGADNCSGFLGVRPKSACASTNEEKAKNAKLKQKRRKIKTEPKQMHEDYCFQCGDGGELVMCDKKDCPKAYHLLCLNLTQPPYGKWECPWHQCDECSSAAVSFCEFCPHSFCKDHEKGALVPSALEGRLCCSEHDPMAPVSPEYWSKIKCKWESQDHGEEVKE
# [2] = target: T1, Histone-lysine N-methyltransferase NSD3 (Homo sapiens); assay: Induction of NSD3 degradation in human NCI-H1703 cells measured upto 72 hrs by Western blot analysis; format: cell-based; conditions: dose 0.001-10 µM
# [3] = target: T1, Histone-lysine N-methyltransferase NSD3 (Homo sapiens); assay: Induction of NSD3 degradation in human NCI-H1703 cells at 3 uM incubated for 48 hrs in presence of MG132 by Western blot analysis; format: cell-based
# NCI-H1703 [4] = assay: Downregulation of CDC25A in human NCI-H1703 cells at […] measured after 72 hrs by RNA sequencing assay; format: functional, cell-based; conditions: dose 7.5 µM
# NCI-H1703 [5] = assay: Downregulation of IGFBP3 in human NCI-H1703 cells at […] measured after 72 hrs by RNA sequencing assay; format: functional, cell-based; conditions: dose 7.5 µM
# NCI-H1703 [6] = assay: Downregulation of CDC25A level in human NCI-H1703 cells at 3 to […] by Western blot analysis; format: functional, cell-based; conditions: dose 3-7.5 µM
# NCI-H1703 [7] = assay: Downregulation of CyclinD1 level in human NCI-H1703 cells at 3 to […] by Western blot analysis; format: functional, cell-based; conditions: dose 3-7.5 µM
# NCI-H520 [8] = assay: Downregulation of CDC25A level in human NCI-H520 cells at 3 to […] by Western blot analysis; format: functional, cell-based; conditions: dose 3-7.5 µM
# NCI-H1703 [9] = assay: Induction of apoptosis in human NCI-H1703 cells assessed as decrease in Bcl-XL protein expression at 5 to 10 uM by Western blot analysis; format: functional, cell-based; conditions: dose 5-10 µM
# NCI-H520 [10] = assay: Induction of apoptosis in human NCI-H520 cells assessed as decrease in Bcl-XL protein expression at 5 to 10 uM by Western blot analysis; format: functional, cell-based; conditions: dose 5-10 µM
# NCI-H1703 [11] = assay: Induction of apoptosis in human NCI-H1703 cells assessed as early apoptotic cells at 5 uM measured after 72 hrs by PI/Annexin-V staining based flow cytometry analysis (reference value: 1.47% ); format: functional
# NCI-H1703 [12] = assay: Induction of apoptosis in human NCI-H1703 cells assessed as early apoptotic cells at […] measured after 72 hrs by PI/Annexin-V staining based flow cytometry analysis (reference value: 1.47% ); format: functional; conditions: dose 7.5 µM
# NCI-H1703 [13] = assay: Induction of apoptosis in human NCI-H1703 cells assessed as necrotic cells at 5 uM measured after 72 hrs by PI/Annexin-V staining based flow cytometry analysis (reference value: 2.80% ); format: functional
# NCI-H1703 [14] = assay: Induction of apoptosis in human NCI-H1703 cells assessed as necrotic cells at 10 uM measured after 72 hrs by PI/Annexin-V staining based flow cytometry analysis (reference value: 2.80% ); format: functional
# [15] = Inhibition of clone formation in human NCI-H1703 cells at 3 uM incubated for 10 days with media replenishment for every 5 days by crystal violet staining based analysis relative to control; format: functional; conditions: NCI-H1703, 240 h, time 10 day
# [16] = Downregulation of NSD3 level in human NCI-H520 cells at 3 uM by measuring fold change by Western blot analysis relative to control; format: functional
# [17] = Downregulation of NSD3 level in human NCI-H520 cells at 5 uM by measuring fold change by Western blot analysis relative to control; format: functional
# [18] = Downregulation of c-Myc level in human NCI-H520 cells at […] by measuring fold change by Western blot analysis relative to control; format: functional; conditions: dose 7.5 µM
# NCI-H1703 [19] = assay: Induction of apoptosis in human NCI-H1703 cells assessed as decrease in Bcl-XL protein expression at 5 uM by measuring fold change by Western blot analysis relative to control; format: functional
# NCI-H520 [20] = assay: Induction of apoptosis in human NCI-H520 cells assessed as decrease in NSD3 protein expression at 10 uM by measuring fold change by Western blot analysis relative to control; format: functional
# NCI-H520 [21] = assay: Induction of apoptosis in human NCI-H520 cells assessed as decrease in Bcl-XL protein expression at […] by measuring fold change by Western blot analysis relative to control; format: functional; conditions: dose 7.5 µM
structure (smiles),measurement,setting,value
Cc1cc(CNCCCCCCCCCCC(=O)N[C@H](C(=O)N2C[C@H](O)C[C@H]2C(=O)N[C@@H](C)c2ccc(-c3scnc3C)cc2)C(C)(C)C)cc(C)c1-c1ncn(C)c1-c1ccnc2cc(F)ccc12,Activity,[1],60%
same,Activity,[2],Dose-Dependent Effect
same,Activity,[3],inactive
same,Activity,NCI-H1703 [4],Active
same,Activity,NCI-H1703 [5],Active
same,Activity,NCI-H1703 [6],Active
same,Activity,NCI-H1703 [7],Active
same,Activity,NCI-H520 [8],Active
same,Activity,NCI-H1703 [9],Active
same,Activity,NCI-H520 [10],Active
same,Activity,NCI-H1703 [11],7.5%
same,Activity,NCI-H1703 [12],3.68%
same,Activity,NCI-H1703 [13],7.21%
same,Activity,NCI-H1703 [14],16.6%
same,inhibition at 3 µM,[15],100%
same,fold change (FC),[16],0.67
same,fold change (FC),[17],0.7
same,fold change (FC),[18],0.78
same,fold change (FC),NCI-H1703 [19],1.1
same,fold change (FC),NCI-H520 [20],0.49
same,fold change (FC),NCI-H520 [21],0.8
